In US12281122B1, “PI3K inhibitors” (Cogent Biosciences, Inc., priority 2023, dated 2025):

Assays:
[1] = tested on: T47D (PI3Kα-H1047R) cell line; assay: HTRF phospho-AKT(S473) cell assay in T47D cells; format: cell-based, human; details: Homo sapiens, 2 hours compound incubation
In short: (§1)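 pAKT(S473) in lysates read by HTRF after a 2 h, 37 °C compound exposure (12-point 1:3 series, max 0.5% DMSO). SKBR3 (wild type, top 10 μM) received 70 ng/ml PDGF-BB during the final 15 min; T47D (H1047R, top 5 μM) was unstimulated. IC50 values derived from the dose-response.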

[2] = tested on: SKBR3 (PI3Kα-Wild Type) cell line; assay: HTRF phospho-AKT(S473) cell assay in SKBR3 cells; format: cell-based, human; details: Homo sapiens, SK-BR-3, 2 hours compound incubation, PDGF-BB stimulated
In short: as §1

[3] = HTRF phospho-AKT(S473), T47D (PI3Kα-H1047R) cells
[4] = HTRF phospho-AKT(S473), SKBR3 (PI3Kα-Wild Type) cells
[5] = T47D (PI3Kα-H1047R) cells, HTRF phospho-AKT(S473)
[6] = SKBR3 (PI3Kα-Wild Type) cells, HTRF phospho-AKT(S473)

| SMILES | IC50 [1, 3] | IC50 [2, 4] | IC50 [1, 5] | IC50 [2, 6] | other results |
| --- | --- | --- | --- | --- | --- |
| Cc1cc([C@@H](C)Nc2ccc(Cl)nc2C(=O)NS(C)(=O)=O)c2nc(N3CCC[C@H](c4ccn(C(F)F)n4)C3)n(C)c(=O)c2c1 (relative stereo) [Compound 770, 6-chloro-3-(((R)-1-(2-((R*)-3-(1-(difluoromethyl)-1H-pyrazol-3-yl)piperidin-1-yl)-3,6-dimethyl-4-oxo-3,4-dihydroquinazolin-8-yl)ethyl)amino)-N-(methylsulfonyl) picolinamide] | 250 to 500 nM | ≥ 5000 nM | – | – | – |
| Cc1cc([C@@H](C)Nc2ccc(Cl)nc2C(=O)NS(C)(=O)=O)c2nc(-c3cnc(-c4ccn(C)n4)c(Cl)c3)n(C)c(=O)c2c1 [Compound 293, (R)-6-chloro-3-((1-(2-(5-chloro-6-(1-methyl-1H-pyrazol-3-yl)pyridin-3-yl)-3,6-dimethyl-4-oxo-3,4-dihydroquinazolin-8-yl)ethyl)amino)-N-(methylsulfonyl) picolinamide] | – | – | 250 to 500 nM | 1000 to 5000 nM | – |
| Cc1cc([C@@H](C)Nc2ccc(Cl)nc2C(=O)NS(C)(=O)=O)c2nc(N3CCC(c4ncccn4)CC3)n(C)c(=O)c2c1 [Compound 500, (R)-6-chloro-3-((1-(3,6-dimethyl-4-oxo-2-(4-(pyrimidin-2-yl)piperidin-1-yl)-3,4-dihydroquinazolin-8-yl)ethyl)amino)-N-(methylsulfonyl) picolinamide] | 250 to 500 nM | 1000 to 5000 nM | – | – | – |
| Cc1cc([C@@H](C)Nc2ccc(Cl)nc2C(=O)NS(C)(=O)=O)c2nc(N3C[C@@H]4[C@H](C3)[C@H]4c3cc4n(n3)CCC4)n(C)c(=O)c2c1 [Compound 477, 6-chloro-3-(((R)-1-(2-((1R,5S,6R)-6-(5,6-dihydro-4H-pyrrolo[1,2-b]pyrazol-2-yl)-3-azabicyclo[3.1.0]hexan-3-yl)-3,6-dimethyl-4-oxo-3,4-dihydroquinazolin-8-yl)ethyl)amino)-N-(methylsulfonyl) picolinamide] | < 250 nM | 1000 to 5000 nM | – | – | – |
| Cc1cc([C@@H](C)Nc2ccc(Cl)nc2C(=O)NS(C)(=O)=O)c2nc(N3CCC4(CCN(c5ccn(C)n5)C4)C3)n(C)c(=O)c2c1 (stereo partly drawn) [Compound 371, 6-chloro-3-(((1R)-1-(3,6-dimethyl-2-(7-(1-methyl-1H-pyrazol-3-yl)-2,7-diazaspiro[4.4]nonan-2-yl)-4-oxo-3,4-dihydroquinazolin-8-yl)ethyl)amino)-N-(methylsulfonyl) picolinamide] | – | – | < 250 nM | 1000 to 5000 nM | – |
| COc1cc([C@H]2[C@@H]3CN(c4nc5c([C@@H](C)Nc6ccc(Cl)nc6C(=O)NS(C)(=O)=O)cc(C)cc5c(=O)n4C)C[C@@H]32)nn1C [Compound 542, 6-chloro-3-(((R)-1-(2-((1R,5S,6R)-6-(5-methoxy-1-methyl-1H-pyrazol-3-yl)-3-azabicyclo[3.1.0]hexan-3-yl)-3,6-dimethyl-4-oxo-3,4-dihydroquinazolin-8-yl)ethyl)amino)-N-(methylsulfonyl) picolinamide] | 250 to 500 nM | ≥ 5000 nM | – | – | – |
| Cc1cc([C@@H](C)Nc2ccc(Cl)nc2C(=O)NS(C)(=O)=O)c2nc(N3C[C@@H]4[C@H](C3)[C@H]4c3nn(C)nc3C)n(C)c(=O)c2c1 [Compound 497, 6-chloro-3-(((R)-1-(2-((1R,5S,6R)-6-(2,5-dimethyl-2H-1,2,3-triazol-4-yl)-3-azabicyclo[3.1.0]hexan-3-yl)-3,6-dimethyl-4-oxo-3,4-dihydroquinazolin-8-yl)ethyl)amino)-N-(methylsulfonyl) picolinamide] | < 250 nM | 1000 to 5000 nM | – | – | – |
| Cc1cc([C@@H](C)Nc2ccc(Cl)nc2C(=O)NS(C)(=O)=O)c2nc(-c3ccc4nn(-c5ncccn5)cc4c3)n(C)c(=O)c2c1 [Compound 850, (R)-6-chloro-3-((1-(3,6-dimethyl-4-oxo-2-(2-(pyrimidin-2-yl)-2H-indazol-5-yl)-3,4-dihydroquinazolin-8-yl)ethyl)amino)-N-(methylsulfonyl) picolinamide] | – | – | – | – | IC50 ([1]; T47D (PI3Kα-H1047R) cell line, phospho-AKT(S473) HTRF): < 250 nM; IC50 ([2]; SKBR3 (PI3Kα-Wild Type) cell line, phospho-AKT(S473) HTRF): 1000 to 5000 nM |
| Cc1cc([C@@H](C)Nc2ccc(Cl)nc2C(=O)NS(C)(=O)=O)c2nc(N3CCc4nn(C)cc4C3)n(C)c(=O)c2c1 [Compound 286, (R)-6-chloro-3-((1-(3,6-dimethyl-2-(2-methyl-2,4,6,7-tetrahydro-5H-pyrazolo[4,3-c]pyridin-5-yl)-4-oxo-3,4-dihydroquinazolin-8-yl)ethyl)amino)-N-(methylsulfonyl) picolinamide] | – | – | < 250 nM | 1000 to 5000 nM | – |
| Cc1cc([C@@H](C)Nc2ccc(Cl)nc2C(=O)NS(C)(=O)=O)c2nc(N3CC[C@@H](Nc4ncccn4)C3)n(C)c(=O)c2c1 [Compound 541, 6-chloro-3-(((R)-1-(3,6-dimethyl-4-oxo-2-((R)-3-(pyrimidin-2-ylamino)pyrrolidin-1-yl)-3,4-dihydroquinazolin-8-yl)ethyl)amino)-N-(methylsulfonyl) picolinamide] | < 250 nM | ≥ 5000 nM | – | – | – |
| Cc1cc([C@@H](C)Nc2ccc(Cl)nc2C(=O)NS(C)(=O)=O)c2nc(N3CCC(c4ncc(C(F)(F)F)cn4)CC3)n(C)c(=O)c2c1 [Compound 630, (R)-6-chloro-3-((1-(3,6-dimethyl-4-oxo-2-(4-(5-(trifluoromethyl)pyrimidin-2-yl)piperidin-1-yl)-3,4-dihydroquinazolin-8-yl)ethyl)amino)-N-(methylsulfonyl) picolinamide] | 500 to 1000 nM | ≥ 5000 nM | – | – | – |
| Cc1cc([C@@H](C)Nc2ccc(Cl)nc2C(=O)NS(C)(=O)=O)c2nc(N3CC[C@H](Oc4ncc(F)cn4)C3)n(C)c(=O)c2c1 [Compound 537, 6-chloro-3-(((R)-1-(2-((S)-3-((5-fluoropyrimidin-2-yl)oxy)pyrrolidin-1-yl)-3,6-dimethyl-4-oxo-3,4-dihydroquinazolin-8-yl)ethyl)amino)-N-(methylsulfonyl) picolinamide] | 250 to 500 nM | ≥ 5000 nM | – | – | – |
| Cc1cc([C@@H](C)Nc2ccc(Cl)nc2C(=O)NS(C)(=O)=O)c2nc(N3C[C@H]4C[C@@H]3CN4c3ncc(F)cn3)n(C)c(=O)c2c1 [Compound 668, 6-chloro-3-(((R)-1-(2-((1R,4R)-5-(5-fluoropyrimidin-2-yl)-2,5-diazabicyclo [2.2.1]heptan-2-yl)-3,6-dimethyl-4-oxo-3,4-dihydroquinazolin-8-yl)ethyl)amino)-N-(methylsulfonyl) picolinamide] | 250 to 500 nM | ≥ 5000 nM | – | – | – |
| Cc1cc([C@@H](C)Nc2ccc(Cl)nc2C(=O)NS(C)(=O)=O)c2nc(N3CCC(c4ccc(C)nc4)CC3)n(C)c(=O)c2c1 [Compound 271, (R)-6-chloro-3-((1-(3,6-dimethyl-2-(4-(6-methylpyridin-3-yl)piperidin-1-yl)-4-oxo-3,4-dihydroquinazolin-8-yl)ethyl)amino)-N-(methylsulfonyl) picolinamide] | – | – | < 250 nM | 1000 to 5000 nM | – |
| Cc1cc([C@@H](C)Nc2ccc(Cl)nc2C(=O)NS(C)(=O)=O)c2nc(N3C[C@@H]4[C@H](C3)[C@H]4c3ccn(C)n3)n(C3CC3)c(=O)c2c1 [Compound 419, 6-chloro-3-(((R)-1-(3-cyclopropyl-6-methyl-2-((1R,5S,6R)-6-(1-methyl-1H-pyrazol-3-yl)-3-azabicyclo[3.1.0]hexan-3-yl)-4-oxo-3,4-dihydroquinazolin-8-yl)ethyl)amino)-N-(methylsulfonyl) picolinamide] | – | – | 250 to 500 nM | 1000 to 5000 nM | – |
| Cc1cc([C@@H](C)Nc2ccc(Cl)nc2C(=O)NS(C)(=O)=O)c2nc(-c3ccc(N(C)C)nc3)n(C)c(=O)c2c1 [Compound 349, (R)-6-chloro-3-((1-(2-(6-(dimethylamino)pyridin-3-yl)-3,6-dimethyl-4-oxo-3,4-dihydroquinazolin-8-yl)ethyl)amino)-N-(methylsulfonyl) picolinamide] | – | – | < 250 nM | 1000 to 5000 nM | – |
| Cc1cc([C@@H](C)Nc2ccc(Cl)nc2C(=O)NS(C)(=O)=O)c2nc(N3CCC[C@@H](c4cncc(C#N)c4)C3)n(C)c(=O)c2c1 (relative stereo) [Compound 263, 6-chloro-3-(((R)-1-(2-((R*)-3-(5-cyanopyridin-3-yl)piperidin-1-yl)-3,6-dimethyl-4-oxo-3,4-dihydroquinazolin-8-yl)ethyl)amino)-N-(methylsulfonyl) picolinamide] | – | – | < 250 nM | 1000 to 5000 nM | – |
| C[C@@H](Nc1ccc(Cl)nc1C(=O)NS(C)(=O)=O)c1cc(F)cc2c(=O)n(C)c(-c3ccc4nn(C)cc4c3)nc12 [Compound 805, (R)-6-chloro-3-((1-(6-fluoro-3-methyl-2-(2-methyl-2H-indazol-5-yl)-4-oxo-3,4-dihydroquinazolin-8-yl)ethyl)amino)-N-(methylsulfonyl) picolinamide] | 250 to 500 nM | 1000 to 5000 nM | – | – | – |
| C[C@@H](Nc1ccc(Cl)nc1C(=O)NS(C)(=O)=O)c1cc(F)cc2c(=O)n(C)c(N3CC[C@H](Oc4cnn(C)c4)C3)nc12 [Compound 388, 6-chloro-3-(((R)-1-(6-fluoro-3-methyl-2-((S)-3-((1-methyl-1H-pyrazol-4-yl)oxy)pyrrolidin-1-yl)-4-oxo-3,4-dihydroquinazolin-8-yl)ethyl)amino)-N-(methylsulfonyl) picolinamide] | – | – | < 250 nM | 1000 to 5000 nM | – |
